These results are taken from PubChem BioAssay AID602487 (The Scripps Research Institute Molecular Screening Center, 2012).

Calls of active or inactive are those of the source. The rule behind the calls is not given here.

This test relates to SARS coronavirus 3C-like protease (3CLpro). Kind of test: SARS 3CLpro protease inhibitors, late-stage follow-up, biochemical, fluorescence, single concentration, set 5 (AID 602487). To be noted: purified 3CLpro, fluorogenic substrate cleavage; at 100 µM; stronger effect = higher value.
As for `CC(C)C(=O)Nc1ccc(N(Cc2ccsc2)C(=O)Cn2cc([Si](C)(C)C)nn2)cc1`, the inhibition is 4.5% (inactive).
For `CC(=O)Nc1ccc(N(C(=O)Cn2cc([Si](C)(C)C)nn2)C(C(=O)NC(C)(C)C)c2ccsc2)cc1` (stereo not given) the value was -3.9% (inactive).
Next, `CC(=O)Nc1ccc(N(C(=O)Cn2ccnn2)C(C(=O)NC(C)(C)C)c2ccsc2)cc1` (stereo not given): 5.4% (inactive).
Next, `CC(C)C(=O)Nc1ccc(N(Cc2ccsc2)C(=O)Cn2cc(-c3ccccc3)nn2)cc1`: 3.7% (inactive).
Regarding `CC(C)C(=O)Nc1ccc(N(Cc2ccsc2)C(=O)Cn2ccnn2)cc1`, the inhibition was 26.1% (inactive).

What is called inhibition is the drop in the measured response relative to a control, in per cent.
